Test results published in patent publication US6583309B1 (University of Medicine and Dentistry of New Jersey, priority 1999, dated 2003).

Molecular target: TAR RNA
Experiment: In vitro binding of resin-bound compounds to TAR RNA (OD260 of unbound RNA)
Set-up: species or system HIV
Conditions: in vitro assay; compounds of formula I on TentaGel beads incubated with TAR RNA overnight at 4° C. in TK buffer; read-out: Kd (nM), binding constants
Protocol: Binding of compounds of formula I and V to TAR RNA was measured by evaluating their inhibition of TAR-TAT complex formation in the presence of increasing levels of the compound to be tested. The compounds of formula I were tested in an in vitro assay; the compounds of formula V were tested in an in vivo assay.
The TAR RNA used corresponds to the minimal sequence required for TAT responsiveness in vivo. This 29-residue oligonucleotide has the sequence: 5′-[…]-3′ (SEQ ID NO.: 1). TAR RNA was prepared by in vitro transcription. A “top strand” single-stranded DNA oligomer having the sequence 5′-TAATACGACTCACTATAG-3′ (SEQ ID NO.: 2) was annealed to a “bottom strand” single-stranded DNA template having the following sequence: 3′-[…]-5′ (SEQ ID NO.: 3), thereby generating a double-stranded region corresponding to a promoter sequence recognized by T7 RNA polymerase. Transcription was carried out in transcription buffer (40 mM Tris-HCl, pH 8.1, 1 mM spermidine, 0.01% Triton®X-100, 5 mM dithiothreitol, 4 mM each of ATP, GTP, CTP, and UTP at 37° C. for 4 to 5 hours. Reactions were performed in a volume of 0.02 ml containing 8 pmole of template (top strand annealed to bottom strand) and 40 to 60 units of T7 RNA polymerase. Transcription was terminated by adding an equal volume of loading buffer (9M urea, 1 mmol EDTA, 0.1M bromophenol blue in 1XTBE buffer; TBE is 45 mmol trisborate at pH 8). Product RNA was purified by electrophoresis through a denaturing 20% polyacrylamide gel containing 8M urea. RNA was extracted from the gel, precipitated, dissolved in dithylpyrocarbonate-treated water, and stored at −20° C. until used.
In vitro assay conditions: Compounds AA-DU were synthesized on TentaGel S—NH2 (4.6 mmole). All Fmoc-amino acids were purchased from Bachem (Torrance, Calif.). 1-hydroxybenzotriazole (HOBT) and diisopropylcarbodiimide (DIPCDI) were obtained from Aldrich Chemical Co., Milwalkee, Wis. Piperidine and trifluoroacetic acid were purchased from Applied Biosystems Division, Perkin-Elmer. Compounds AA-DU were synthesized manually according to standard solid-phase peptide synthesis protocols. Coupling efficiencies of residues at each step were monitored by Kaiser test. Deprotection of trimer peptides was carried out in 10% water in trifluoroacetic acid (1 mL) for 16 hours at room temperature. After filtration of solvents, the resin was washed with water (1 mL×4), DMF (1 mL×4), dichloromethane (1 mL×4), and dried under reduced pressure. The compounds attached to the resin (10 beads) were placed in an Eppendorf tube and washed with TK buffer ([…]). The beads were suspended in TK buffer ([…]) and incubated with TAR RNA ([…]) overnight at 4° C. The suspension was centrifuged and the supernatant containing unbound RNA was transferred to a cuvette for OD260 measurements. The UV absorbance was measured by a Shimadzu UV-1601 spectrometer. Equilibrium concentrations of RNA were determined from these measurements. Given that the initial concentrations of ligand and RNA are known, and assuming simple bimolecular receptor/substrate binding, dissociation constant (KD) was calculated from straightforward equations.

| SMILES | Kd |
| --- | --- |
| NCCCCCCCN(CC(=O)N[C@H](CCCCN)COC(N)=O)C(=O)OC[C@@H](N)CCCCN [Compound BK, Carbamic acid 6-amino-2-{2-[(7-amino-heptyl)-(2,6-diamino-hexyloxycarbonyl)-amino]-acetylamino}-hexyl ester] | 930 nM |
| NCCCCCCCN(CC(=O)N[C@H](CCCCN)COC(N)=O)C(=O)OC[C@H](N)CCCCN [Compound BL, Carbamic acid 6-amino-2-{2-[(7-amino-heptyl)-(2,6-diamino-hexyloxycarbonyl)-amino]-acetylamino}-hexyl ester] | 718 nM |
| NCCCCCCCN(CC(=O)N[C@H](CCCCN)COC(N)=O)C(=O)[C@H](N)CCCCN [Compound BN, Carbamic acid 6-amino-2-{2-[(7-amino-heptyl)-(2,6-diamino-hexanoyl)-amino]-acetylamino}-hexyl ester] | 3150 nM |
| NCCCCCCCNCC(=O)N(CCCCCCCN)CC(=O)N[C@H](CCCCN)COC(N)=O [Compound BP, Carbamic acid 6-amino-2-(2-{(7-amino-heptyl)-[2-(7-amino-heptylamino)-acetyl]-amino}-acetylamino)-hexyl ester] | 2190 nM |
| N=C(N)NCCC[C@H](N)COC(=O)N(CCCCCCCN)CC(=O)N[C@H](CCCCN)COC(N)=O [Compound BR, Carbamic acid 6-amino-2-{2-[(2-amino-5-guanidino-pentyloxycarbonyl)-(7-amino-heptyl)-amino]-acetylamino}-hexyl ester] | 5590 nM |
| NCCCCCCCN(CC(=O)N[C@H](CCCCN)COC(N)=O)C(=O)OC[C@H](N)CCC(N)=O [Compound BS, Carbamic acid 6-amino-2-{2-[(2-amino-4-carbamoyl-butoxycarbonyl)-(7-amino-heptyl)-amino]-acetylamino}-hexyl ester] | 639 nM |
| NCCCC[C@@H](N)COC(=O)N[C@@H](CCCCN)C(=O)N[C@H](CCCCN)COC(N)=O [Compound BU, Carbamic acid 6-amino-2-[6-amino-2-(2,6-diamino-hexyloxycarbonylamino)-hexanoylamino]-hexyl ester] | 1420 nM |
| NCCCC[C@H](COC(N)=O)NC(=O)[C@H](CCCCN)NC(=O)[C@H](N)CCCCN [Compound BW, Carbamic acid 6-amino-2-[6-amino-2-(2,6-diamino-hexanoylamino)-hexanoylamino]-hexyl ester] | 678 nM |
| NCCCC[C@@H](N)COC(=O)N[C@H](CCCCN)COC(=O)N[C@@H](CCCCN)COC(N)=O [Compound CB, Carbamic acid 6-amino-2-[6-amino-2-(2,6-diamino-hexyloxycarbonylamino)-hexyloxycarbonylamino]-hexyl ester] | 603 nM |
| NCCCCCCCNCC(=O)N[C@H](CCCCN)COC(=O)N[C@@H](CCCCN)COC(N)=O [Compound CF, Carbamic acid 6-amino-2-{6-amino-2-[2-(7-amino-heptylamino)-acetylamino]-hexyloxycarbonylamino}-hexyl ester] | 567 nM |
| NCCCCNCC(=O)N[C@H](CCCCN)COC(=O)N[C@@H](CCCCN)COC(N)=O [Compound CG, Carbamic acid 6-amino-2-{6-amino-2-[2-(4-amino-butylamino)-acetylamino]-hexyloxycarbonylamino}-hexyl ester] | 603 nM |
| N=C(N)NCCC[C@H](N)COC(=O)N[C@H](CCCCN)COC(=O)N[C@@H](CCCCN)COC(N)=O [Compound CH, Carbamic acid 6-amino-2-[6-amino-2-(2-amino-5-guanidino-pentyloxycarbonylamino)-hexyloxycarbonylamino]-hexyl ester] | 865 nM |
| NCCCC[C@@H](N)COC(=O)N[C@@H](CCCCN)COC(=O)N[C@@H](CCCCN)COC(N)=O [Compound CK, Carbamic acid 6-amino-2-[6-amino-2-(2,6-diamino-hexyloxycarbonylamino)-hexyloxycarbonylamino]-hexyl ester] | 1110 nM |
| NCCCCNCC(=O)N[C@@H](CCCCN)COC(=O)N[C@@H](CCCCN)COC(N)=O [Compound CP, Carbamic acid 6-amino-2-{6-amino-2-[2-(4-amino-butylamino)-acetylamino]-hexyloxycarbonylamino}-hexyl ester] | 678 nM |
| N=C(N)NCCC[C@H](N)COC(=O)N[C@@H](CCCCN)COC(=O)N[C@@H](CCCCN)COC(N)=O [Compound CQ, Carbamic acid 6-amino-2-[6-amino-2-(2-amino-5-guanidino-pentyloxycarbonylamino)-hexyloxycarbonylamino]-hexyl ester] | 2350 nM |

More lines, in order of falling Kd, values ahead:

| Kd | SMILES |
| --- | --- |
| 567 nM | NCCCC[C@@H](COC(N)=O)NC(=O)OC[C@@H](CCCCN)NC(=O)[C@@H](N)CCCCN [Compound CC, Carbamic acid 6-amino-2-[6-amino-2-(2,6-diamino-hexanoylamino)-hexyloxycarbonylamino]-hexyl ester] |
| 491 nM | NCCCC[C@@H](COC(N)=O)NC(=O)OC[C@H](CCCCN)NC(=O)[C@H](N)CCCCN [Compound CM, Carbamic acid 6-amino-2-[6-amino-2-(2,6-diamino-hexanoylamino)-hexyloxycarbonylamino]-hexyl ester] |
| 460 nM | NCCCC[C@H](N)COC(=O)N[C@H](CCCCN)COC(=O)N[C@@H](CCCCN)COC(N)=O [Compound CA, Carbamic acid 6-amino-2-[6-amino-2-(2,6-diamino-hexyloxycarbonylamino)-hexyloxycarbonylamino]-hexyl ester] |
| 403 nM | NCCCCCCCN(CC(=O)N[C@H](CCCCN)COC(N)=O)C(=O)[C@@H](N)CCCCN [Compound BM, Carbamic acid 6-amino-2-{2-[(7-amino-heptyl)-(2,6-diamino-hexanoyl)-amino]-acetylamino}-hexyl ester] |
| 301 nM | NCCCCCNCC(=O)N[C@H](CCCCN)COC(=O)N[C@@H](CCCCN)COC(N)=O [Compound CE, Carbamic acid 6-amino-2-{6-amino-2-[2-(5-amino-pentylamino)-acetylamino]-hexyloxycarbonylamino}-hexyl ester] |
| 235 nM | NCCCCCCCN(CC(=O)N[C@H](CCCCN)COC(N)=O)C(=O)CNCCCCN [Compound BQ, Carbamic acid 6-amino-2-{2-[[2-(4-amino-butylamino)-acetyl]-(7-amino-heptyl)-amino]-acetylamino}-hexyl ester] |
| 235 nM | NCCCCCNCC(=O)N[C@@H](CCCCN)COC(=O)N[C@@H](CCCCN)COC(N)=O [Compound CN, Carbamic acid 6-amino-2-{6-amino-2-[2-(5-amino-pentylamino)-acetylamino]-hexyloxycarbonylamino}-hexyl ester] |
| 202 nM | NCCCCCNCC(=O)N[C@@H](CCCCN)C(=O)N[C@H](CCCCN)COC(N)=O [Compound BX, Carbamic acid 6-amino-2-{6-amino-2-[2-(5-amino-pentylamino)-acetylamino]-hexanoylamino}-hexyl ester] |
| 183 nM | NCCCCCCCN(CC(=O)N[C@H](CCCCN)COC(N)=O)C(=O)CNCCCCCN [Compound BO, Carbamic acid 6-amino-2-(2-{(7-amino-heptyl)-[2-(5-amino-pentylamino)-acetyl]-amino}-acetylamino)-hexyl ester] |
| 183 nM | NCCCCCCCNCC(=O)N[C@@H](CCCCN)C(=O)N[C@H](CCCCN)COC(N)=O [Compound BY, Carbamic acid 6-amino-2-{6-amino-2-[2-(7-amino-heptylamino)-acetylamino]-hexanoylamino}-hexyl ester] |
| 147 nM | NCCCCCCCNCC(=O)N[C@@H](CCCCN)COC(=O)N[C@@H](CCCCN)COC(N)=O [Compound CO, Carbamic acid 6-amino-2-{6-amino-2-[2-(7-amino-heptylamino)-acetylamino]-hexyloxycarbonylamino}-hexyl ester] |
| 130 nM | NCCCCNCC(=O)N[C@@H](CCCCN)C(=O)N[C@H](CCCCN)COC(N)=O [Compound BZ, Carbamic acid 6-amino-2-{6-amino-2-[2-(4-amino-butylamino)-acetylamino]-hexanoylamino}-hexyl ester] |
